Reference: PubChem BioAssay (NCI)
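These data come from cells grown in 96-well plates and exposed to compound for 48 hours at five concentrations. Here, GI50 denotes the concentration required for 50% inhibition of growth. The concentration for full growth arrest is given as TGI.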

Experiments:
Test in all cases: NCI tumour cell line growth inhibition, 48 h
786-0 renal = tested on: 786-0 renal
A498 renal = tested on: A498 renal
A549 NSCLC = tested on: A549 NSCLC
ACHN renal = tested on: ACHN renal
BT-549 breast = tested on: BT-549 breast
CAKI-1 renal = tested on: CAKI-1 renal
CCRF-CEM leukemia = tested on: CCRF-CEM leukemia
COLO 205 colon = tested on: COLO 205 colon
DU-145 prostate = tested on: DU-145 prostate
EKVX NSCLC = tested on: EKVX NSCLC
HCC-2998 colon = tested on: HCC-2998 colon
HCT-116 colon = tested on: HCT-116 colon
HCT-15 colon = tested on: HCT-15 colon
HL-60(TB) leukemia = tested on: HL-60(TB) leukemia
HOP-62 NSCLC = tested on: HOP-62 NSCLC
HOP-92 NSCLC = tested on: HOP-92 NSCLC
HS 578T breast = tested on: HS 578T breast
HT29 colon = tested on: HT29 colon
IGROV1 ovarian = tested on: IGROV1 ovarian
K-562 leukemia = tested on: K-562 leukemia
KM12 colon = tested on: KM12 colon
LOX IMVI melanoma = tested on: LOX IMVI melanoma
M14 melanoma = tested on: M14 melanoma
MALME-3M melanoma = tested on: MALME-3M melanoma
MCF7 breast = tested on: MCF7 breast
MDA-MB-231 breast = tested on: MDA-MB-231 breast
MDA-MB-435 = tested on: MDA-MB-435
MOLT-4 leukemia = tested on: MOLT-4 leukemia
NCI-H226 lung = tested on: NCI-H226 lung
NCI-H23 lung = tested on: NCI-H23 lung
NCI-H460 lung = tested on: NCI-H460 lung
NCI-H522 lung = tested on: NCI-H522 lung
NCI/ADR-RES ovarian = tested on: NCI/ADR-RES ovarian
OVCAR-3 ovarian = tested on: OVCAR-3 ovarian
OVCAR-4 ovarian = tested on: OVCAR-4 ovarian
OVCAR-5 ovarian = tested on: OVCAR-5 ovarian
OVCAR-8 ovarian = tested on: OVCAR-8 ovarian
PC-3 prostate = tested on: PC-3 prostate
RPMI-8226 leukemia = tested on: RPMI-8226 leukemia
RXF 393 renal = tested on: RXF 393 renal
SF-268 CNS = tested on: SF-268 CNS
SF-295 CNS = tested on: SF-295 CNS
SF-539 CNS = tested on: SF-539 CNS
SK-MEL-2 melanoma = tested on: SK-MEL-2 melanoma
SK-MEL-28 melanoma = tested on: SK-MEL-28 melanoma
SK-MEL-5 melanoma = tested on: SK-MEL-5 melanoma
SK-OV-3 ovarian = tested on: SK-OV-3 ovarian
SN12C renal = tested on: SN12C renal
SNB-19 CNS = tested on: SNB-19 CNS
SR leukemia = tested on: SR leukemia
SW-620 colon = tested on: SW-620 colon
T-47D breast = tested on: T-47D breast
TK-10 renal = tested on: TK-10 renal
U251 CNS = tested on: U251 CNS
UACC-257 melanoma = tested on: UACC-257 melanoma
UACC-62 melanoma = tested on: UACC-62 melanoma
UO-31 renal = tested on: UO-31 renal

Which GI50 (786-0 renal) does the source give for `Cn1cc(-c2nnc(N)nc2-c2c[nH]c3ccc(F)cc23)c2cc(Br)ccc21` here?
Its GI50 is 3.79 µM.

What about the TGI (786-0 renal) of the same compound?
Its TGI is 22.4 µM.

And the GI50 (A498 renal)?
Its GI50 is 1.54 µM.

What about the TGI (A498 renal) of the same compound?
The TGI was 4.84 µM.

What about the GI50 (A549 NSCLC) of the same compound?
Its GI50 is 2.11 µM.

And the TGI (A549 NSCLC)?
Its TGI is 46.7 µM.

What about the GI50 (ACHN renal) of the same compound?
The GI50 was 2.8 µM.

And the TGI (ACHN renal)?
The TGI was 13.6 µM.

What about the GI50 (BT-549 breast) of the same compound?
The GI50 was 2.67 µM.

And the TGI (BT-549 breast)?
The TGI was 17.6 µM.

What about the GI50 (CAKI-1 renal) of the same compound?
The GI50 was 0.668 µM.

And the TGI (CAKI-1 renal)?
Its TGI is 12.5 µM.

And the GI50 (CCRF-CEM leukemia)?
The GI50 was 2.29 µM.

And the TGI (CCRF-CEM leukemia)?
The TGI was > 100 µM.

And the GI50 (COLO 205 colon)?
The GI50 was 0.64 µM.

And the TGI (COLO 205 colon)?
Its TGI is 3.94 µM.

What about the GI50 (DU-145 prostate) of the same compound?
Its GI50 is 2.91 µM.

And the TGI (DU-145 prostate)?
The TGI was 26.9 µM.

What about the GI50 (EKVX NSCLC) of the same compound?
The GI50 was 3.02 µM.

What about the TGI (EKVX NSCLC) of the same compound?
The TGI was 15.8 µM.

What about the GI50 (HCC-2998 colon) of the same compound?
The GI50 was 2.99 µM.

What about the TGI (HCC-2998 colon) of the same compound?
Its TGI is 12.5 µM.

What about the GI50 (HCT-116 colon) of the same compound?
Its GI50 is 1.08 µM.

And the TGI (HCT-116 colon)?
Its TGI is 11.1 µM.

What about the GI50 (HCT-15 colon) of the same compound?
Its GI50 is 0.591 µM.

What about the TGI (HCT-15 colon) of the same compound?
The TGI was 13.1 µM.

What about the GI50 (HL-60(TB) leukemia) of the same compound?
The GI50 was 0.707 µM.

And the TGI (HL-60(TB) leukemia)?
The TGI was > 100 µM.

And the GI50 (HOP-62 NSCLC)?
The GI50 was 1.64 µM.

What about the TGI (HOP-62 NSCLC) of the same compound?
Its TGI is 14.6 µM.

And the GI50 (HOP-92 NSCLC)?
The GI50 was 1.7 µM.

And the TGI (HOP-92 NSCLC)?
The TGI was 13.1 µM.

What about the GI50 (HS 578T breast) of the same compound?
Its GI50 is 2.04 µM.

And the TGI (HS 578T breast)?
The TGI was 8.17 µM.

What about the GI50 (HT29 colon) of the same compound?
Its GI50 is 0.458 µM.

And the TGI (HT29 colon)?
The TGI was 10.8 µM.

What about the GI50 (IGROV1 ovarian) of the same compound?
The GI50 was 0.881 µM.

And the TGI (IGROV1 ovarian)?
The TGI was 12.7 µM.

What about the GI50 (K-562 leukemia) of the same compound?
Its GI50 is 0.453 µM.

What about the TGI (K-562 leukemia) of the same compound?
Its TGI is > 100 µM.

And the GI50 (KM12 colon)?
Its GI50 is 0.875 µM.

And the TGI (KM12 colon)?
The TGI was 14.6 µM.

What about the GI50 (LOX IMVI melanoma) of the same compound?
Its GI50 is 1.19 µM.

What about the TGI (LOX IMVI melanoma) of the same compound?
The TGI was 14 µM.

What about the GI50 (M14 melanoma) of the same compound?
Its GI50 is 1.3 µM.

And the TGI (M14 melanoma)?
Its TGI is 12.3 µM.

And the GI50 (MALME-3M melanoma)?
Its GI50 is 1.32 µM.

And the TGI (MALME-3M melanoma)?
The TGI was 16.6 µM.

And the GI50 (MCF7 breast)?
Its GI50 is 0.7 µM.

And the TGI (MCF7 breast)?
Its TGI is 11.2 µM.

And the GI50 (MDA-MB-231 breast)?
Its GI50 is 2.3 µM.

What about the TGI (MDA-MB-231 breast) of the same compound?
Its TGI is 16.7 µM.

What about the GI50 (MDA-MB-435) of the same compound?
Its GI50 is 0.28 µM.

What about the TGI (MDA-MB-435) of the same compound?
Its TGI is 0.829 µM.

And the GI50 (MOLT-4 leukemia)?
The GI50 was 1.38 µM.

What about the TGI (MOLT-4 leukemia) of the same compound?
The TGI was > 100 µM.

What about the GI50 (NCI-H226 lung) of the same compound?
Its GI50 is 3.06 µM.

What about the TGI (NCI-H226 lung) of the same compound?
The TGI was 24.4 µM.

And the GI50 (NCI-H23 lung)?
Its GI50 is 2.08 µM.

And the TGI (NCI-H23 lung)?
The TGI was 10.4 µM.

And the GI50 (NCI-H460 lung)?
The GI50 was 0.611 µM.

What about the TGI (NCI-H460 lung) of the same compound?
The TGI was 10.8 µM.

What about the GI50 (NCI-H522 lung) of the same compound?
Its GI50 is 0.933 µM.

And the TGI (NCI-H522 lung)?
The TGI was 8.28 µM.

What about the GI50 (NCI/ADR-RES ovarian) of the same compound?
The GI50 was 2.25 µM.

What about the TGI (NCI/ADR-RES ovarian) of the same compound?
The TGI was 22.9 µM.

What about the GI50 (OVCAR-3 ovarian) of the same compound?
The GI50 was 1.15 µM.

And the TGI (OVCAR-3 ovarian)?
Its TGI is 9.57 µM.

What about the GI50 (OVCAR-4 ovarian) of the same compound?
The GI50 was 2.91 µM.

And the TGI (OVCAR-4 ovarian)?
The TGI was 13.1 µM.

And the GI50 (OVCAR-5 ovarian)?
The GI50 was 3.15 µM.

And the TGI (OVCAR-5 ovarian)?
Its TGI is 16.7 µM.

What about the GI50 (OVCAR-8 ovarian) of the same compound?
Its GI50 is 2.98 µM.

And the TGI (OVCAR-8 ovarian)?
The TGI was 20.7 µM.

What about the GI50 (PC-3 prostate) of the same compound?
The GI50 was 0.991 µM.

What about the TGI (PC-3 prostate) of the same compound?
The TGI was 20.6 µM.

And the GI50 (RPMI-8226 leukemia)?
The GI50 was 2.29 µM.

And the TGI (RPMI-8226 leukemia)?
Its TGI is 43.4 µM.

What about the GI50 (RXF 393 renal) of the same compound?
Its GI50 is 1.38 µM.

And the TGI (RXF 393 renal)?
Its TGI is 3.88 µM.

And the GI50 (SF-268 CNS)?
Its GI50 is 2.73 µM.

What about the TGI (SF-268 CNS) of the same compound?
Its TGI is 20.1 µM.

What about the GI50 (SF-295 CNS) of the same compound?
Its GI50 is 0.792 µM.

What about the TGI (SF-295 CNS) of the same compound?
The TGI was 5.08 µM.

And the GI50 (SF-539 CNS)?
The GI50 was 1.88 µM.

And the TGI (SF-539 CNS)?
The TGI was 8.7 µM.

And the GI50 (SK-MEL-2 melanoma)?
Its GI50 is 2.06 µM.

And the TGI (SK-MEL-2 melanoma)?
The TGI was 10.5 µM.

And the GI50 (SK-MEL-28 melanoma)?
The GI50 was 2.98 µM.

And the TGI (SK-MEL-28 melanoma)?
The TGI was 17.6 µM.

And the GI50 (SK-MEL-5 melanoma)?
Its GI50 is 1.15 µM.

What about the TGI (SK-MEL-5 melanoma) of the same compound?
Its TGI is 2.71 µM.

And the GI50 (SK-OV-3 ovarian)?
Its GI50 is 2.53 µM.

And the TGI (SK-OV-3 ovarian)?
The TGI was 15.1 µM.

And the GI50 (SN12C renal)?
The GI50 was 3.12 µM.

What about the TGI (SN12C renal) of the same compound?
The TGI was 17.4 µM.

And the GI50 (SNB-19 CNS)?
The GI50 was 2.56 µM.

And the TGI (SNB-19 CNS)?
Its TGI is 14.8 µM.

And the GI50 (SR leukemia)?
The GI50 was 0.671 µM.

What about the TGI (SR leukemia) of the same compound?
Its TGI is > 100 µM.

What about the GI50 (SW-620 colon) of the same compound?
The GI50 was 0.658 µM.

What about the TGI (SW-620 colon) of the same compound?
Its TGI is 14.2 µM.

And the GI50 (T-47D breast)?
The GI50 was 1.91 µM.

What about the TGI (T-47D breast) of the same compound?
Its TGI is 19.9 µM.

What about the GI50 (TK-10 renal) of the same compound?
The GI50 was 5.18 µM.

And the TGI (TK-10 renal)?
The TGI was 38.9 µM.

And the GI50 (U251 CNS)?
Its GI50 is 2.43 µM.

And the TGI (U251 CNS)?
Its TGI is 14.3 µM.

And the GI50 (UACC-257 melanoma)?
Its GI50 is 4.71 µM.

What about the TGI (UACC-257 melanoma) of the same compound?
Its TGI is 19.3 µM.

And the GI50 (UACC-62 melanoma)?
Its GI50 is 0.65 µM.

And the TGI (UACC-62 melanoma)?
The TGI was 12.6 µM.

What about the GI50 (UO-31 renal) of the same compound?
Its GI50 is 1.76 µM.

And the TGI (UO-31 renal)?
The TGI was 13.9 µM.
